Converted amounts (≈) assume the structure as drawn.
Key:
[1] = test system: HPAC; assay: Cytotoxicity against human HPAC cells assessed as reduction in LDH release at 100 ug/ml measured after 12 hrs by CytoTox96 nonradioactive assay; assay type: functional; design: scale not given: the % may be the effect or the level left; details: dose 100 µg/ml
[2] = test system: HeLa; assay: Cytotoxicity against human HeLa cells assessed as cell growth inhibition measured after 48 hrs by MTT assay; assay type: functional, cell-based
[3] = test system: PANC-1; assay: Cytotoxicity against human PANC-1 cells assessed as cell growth inhibition measured after 72 hrs by MTT assay; assay type: functional, cell-based; details: PANC-1, 72 h
[4] = Cytotoxicity against human L929 cells assessed as cell growth inhibition measured after 48 hrs by MTT assay; assay type: toxicity, cell-based; details: mouse
[5] = test system: HCT-116; assay: Cytotoxicity against human HCT-116 cells assessed as cell growth inhibition measured after 48 hrs by MTT assay; assay type: functional, cell-based; details: HCT-116, 48 h
[6] = test system: A549; assay: Cytotoxicity against human A549 cells assessed as cell growth inhibition measured after 48 hrs by MTT assay; assay type: functional, cell-based; details: A549, 48 h
[7] = test system: MCF7; assay: Cytotoxicity against human MCF7 cells assessed as cell growth inhibition measured after 48 hrs by MTT assay; assay type: functional, cell-based; details: MCF7, 48 h
[8] = test system: PANC-1; assay: Cytotoxicity against human PANC-1 cells assessed as cell growth inhibition measured after 48 hrs by MTT assay; assay type: functional, cell-based; details: PANC-1, 48 h
[9] = test system: A-431; assay: Cytotoxicity against human A-431 cells assessed as cell growth inhibition measured after 48 hrs by MTT assay; assay type: functional, cell-based; details: A-431, 48 h
[10] = Cytotoxicity against human HUVEC cells assessed as cell growth inhibition measured after 48 hrs by MTT assay; assay type: toxicity, cell-based
[11] = test system: HeLa; assay: Cytotoxicity against human HeLa cells assessed as cell growth inhibition measured after 24 hrs by MTT assay; assay type: functional, cell-based
[12] = test system: ECa-109 cell line; assay: Cytotoxicity against human Eca-109 cells assessed as cell growth inhibition measured after 24 hrs by MTT assay; assay type: functional, cell-based; details: ECa-109, 24 h
[13] = test system: KYSE-450; assay: Cytotoxicity against human KYSE-450 cells assessed as cell growth inhibition measured after 24 hrs by MTT assay; assay type: functional, cell-based; details: KYSE-450, 24 h
[14] = test system: A549; assay: Cytotoxicity against human A549 cells assessed as cell growth inhibition measured after 48 hrs; assay type: functional, cell-based; details: A549, 48 h
[15] = test system: THP-1; assay: Cytotoxicity against human THP-1 cells assessed as cell growth inhibition measured after 24 hrs by MTT assay; assay type: functional, cell-based; details: THP-1, 24 h
[16] = Cytotoxicity against human CCD-841CoN cells assessed as cell growth inhibition measured after 24 hrs by MTT assay; assay type: toxicity, cell-based
[17] = test system: LN-229; assay: Cytotoxicity against human LN-229 cells assessed as cell growth inhibition measured after 48 hrs; assay type: functional, cell-based; details: LN-229, 48 h
[18] = test system: Jurkat; assay: Cytotoxicity against human Jurkat cells assessed as cell growth inhibition measured after 24 hrs; assay type: functional, cell-based
[19] = test system: LS180; assay: Cytotoxicity against human LS180 cells assessed as cell growth inhibition; assay type: functional, cell-based
[20] = test system: MDA-MB-231; assay: Cytotoxicity against human MDA-MB-231 cells assessed as reduction in cell viability at 3.68 ug/ml measured after 24 hrs by MTT assay relative to control; assay type: functional; details: dose 3.68 µg/ml
[21] = test system: MCF7; assay: Cytotoxicity against human MCF7 cells assessed as reduction in cell viability at 14.7 ug/ml measured after 48 hrs by MTT assay relative to control; assay type: functional; details: dose 14.7 µg/ml
[22] = test system: THP-1; assay: Cytotoxicity against human THP-1 cells assessed as cell growth inhibition measured after 48 hrs by MTT assay; assay type: functional, cell-based; details: THP-1, 48 h
[23] = test system: Jurkat; assay: Cytotoxicity against human Jurkat cells assessed as cell growth inhibition measured after 45 hrs; assay type: functional, cell-based
[24] = test system: MCF7; assay: Cytotoxicity against human MCF7 cells assessed as reduction in cell viability at 14.7 ug/ml measured after 24 hrs by MTT assay relative to control; assay type: functional; details: dose 14.7 µg/ml
[25] = test system: Caco-2; assay: Cytotoxicity against human Caco2 cells assessed as cell growth inhibition measured after 24 by MTT assay; assay type: functional, cell-based
[26] = Cytotoxicity against human HEK293 cells assessed as cell growth inhibition measured after 24 hrs by MTT assay; assay type: toxicity, cell-based
[27] = Cytotoxicity against human HEK293 cells assessed as cell growth inhibition measured after 72 hrs by MTT assay; assay type: toxicity, cell-based
[28] = test system: MDA-MB-231; assay: Cytotoxicity against human MDA-MB-231 cells assessed as reduction in cell viability at 3.68 ug/ml measured after 48 hrs by MTT assay relative to control; assay type: functional; details: dose 3.68 µg/ml
[29] = test system: HT-29; assay: Cytotoxicity against human HT-29 cells assessed as cell growth inhibition; assay type: functional, cell-based
[30] = Cytotoxicity against human HEK293 cells assessed as cell growth inhibition measured after 48 hrs by MTT assay; assay type: toxicity, cell-based
[31] = test system: THP-1; assay: Cytotoxicity against human THP-1 cells assessed as cell growth inhibition measured after 72 hrs by MTT assay; assay type: functional, cell-based; details: THP-1, 72 h
[32] = test system: Jurkat; assay: Cytotoxicity against human Jurkat cells assessed as reduction in cell viability at 25 ug/ml measured after 24 hrs; assay type: functional; details: dose 25 µg/ml
[33] = test system: MDA-MB-231; assay: Cytotoxicity against human MDA-MB-231 cells assessed as cell growth inhibition measured after 24 hrs by crystal violet staining based assay; assay type: functional; details: MDA-MB-231, 24 h
[34] = test system: HL-60; assay: Cytotoxicity against human HL-60 cells assessed as cell growth inhibition measured after 48 hrs; assay type: functional, cell-based; details: HL-60, 48 h
[35] = test system: K562; assay: Cytotoxicity against human K562 cells assessed as cell growth inhibition measured after 48 hrs; assay type: functional, cell-based; details: K562, 48 h
[36] = Antitumor activity against human HeLa cells xenografted in BALB/c mouse assessed as reduction in tumor weight at 500 mg/kg, IG administered once daily for 12 days measured after 14 days; assay type: functional; design: scale not given: the % may be the effect or the level left; details: time 12 day
[37] = Antitumor activity against human HeLa cells xenografted in BALB/c mouse assessed as reduction in tumor weight at 5 mg/kg, IG administered once daily for 12 days measured after 14 days; assay type: functional; design: scale not given: the % may be the effect or the level left; details: time 12 day
[38] = Antitumor activity against human HeLa cells xenografted in BALB/c mouse assessed as reduction in tumor weight at 50 mg/kg, IG administered once daily for 12 days measured after 14 days; assay type: functional; design: scale not given: the % may be the effect or the level left; details: time 12 day

CCOC(=O)CCCCCCC/C=C\CCCCCCC(C)O[C@@H]1O[C@H](COC(C)=O)[C@@H](O)[C@H](O)[C@H]1O[C@@H]1O[C@H](CO)[C@@H](O)[C@H](O)[C@H]1O (stereo partly specified)
Activity [1]: 27.4%

CCCCCCCCCCCCCCCCO[C@@H]1O[C@H](CO)[C@@H](O)[C@H](O)[C@H]1O[C@@H]1O[C@H](CO)[C@@H](O)[C@H](O)[C@H]1O
IC50 [2]: 16.3 µg/mL (≈ 28.8 µM)
IC50 [3]: > 100 µg/mL
IC50 at 48 h [4]: > 320 µg/mL
IC50 [5]: 62.8 µg/mL (≈ 111 µM)
IC50 [6]: 236 µg/mL
IC50 [7]: 65.7 µg/mL (≈ 116 µM)
IC50 [8]: 113 µg/mL (≈ 199 µM)
IC50 [9]: 236 µg/mL (≈ 417 µM)
IC50 at 48 h [10]: > 320 µg/mL

CC(=O)OC[C@H]1O[C@H]2OC(C)CCC/C=C/C/C=C\CCCCCCCC(=O)O[C@H]3[C@H](O)[C@@H](O)[C@H](O[C@@H]2[C@@H](O)[C@@H]1O)O[C@@H]3COC(C)=O (stereo partly specified)
IC50 [11]: 476 µg/mL (≈ 694 µM)
IC50 [12]: 15 µg/mL (≈ 21.8 µM)
IC50 [13]: 35 µg/mL (≈ 51 µM)
IC50 [14]: 22 µg/mL (≈ 32 µM)

COc1cccc2c1C(=O)c1c(O)c3c(c(O)c1C2=O)C[C@@](O)(C(=O)CO)C[C@@H]3O[C@H]1C[C@H](N)[C@H](O)[C@H](C)O1 [DOXORUBICIN]
IC50 [11]: 7.4 µg/mL (≈ 13.6 µM)
IC50 [15]: 15.7 µg/mL (≈ 28.9 µM)
IC50 at 24 h [16]: 1.5 µg/mL (≈ 2.76 µM)
IC50 [2]: 13 µg/mL (≈ 23.9 µM)
IC50 [17]: 2 µg/mL (≈ 3.68 µM)
IC50 [18]: 1 µM
IC50 [19]: 0.7 µg/mL (≈ 1.29 µM)
Activity [20]: 55%
IC50 [6]: 9.5 µM
Activity [21]: 40%
IC50 [22]: 6.5 µg/mL (≈ 12 µM)
IC50 [23]: 0.3 µM
Activity [24]: 45%
IC50 [25]: 64.2 µg/mL (≈ 118 µM)
IC50 at 24 h [26]: 16.7 µg/mL (≈ 30.7 µM)
IC50 at 72 h [27]: 1 µg/mL (≈ 1.84 µM)
Activity [28]: 45%
IC50 [29]: 1.6 µg/mL (≈ 2.94 µM)
IC50 at 48 h [30]: 6.1 µg/mL (≈ 11.2 µM)
IC50 [31]: 3 µg/mL (≈ 5.52 µM)

CCOC(=O)CCCCCCC/C=C\CCCCCCC(C)O[C@@H]1O[C@H](CO)[C@@H](O)[C@H](O)[C@H]1O[C@@H]1O[C@H](CO)[C@@H](O)[C@H](O)[C@H]1O (stereo partly specified)
Activity [1]: 23.6%
Activity [32]: 0%

CCCCOC(=O)CCCCCCC/C=C\CCCCCCC(C)O[C@@H]1O[C@H](CO)[C@@H](O)[C@H](O)[C@H]1O[C@@H]1O[C@H](CO)[C@@H](O)[C@H](O)[C@H]1O (stereo partly specified)
Activity [32]: 0%

CC(CCCCCC/C=C\CCCCCCCC(=O)O)O[C@@H]1O[C@H](CO)[C@@H](O)[C@H](O)[C@H]1O[C@@H]1O[C@H](CO)[C@@H](O)[C@H](O)[C@H]1O (stereo partly specified)
IC50 [33]: 80 µM

CC(=O)OC[C@H]1O[C@H]2OC(C)/C=C/C/C=C/C/C=C\CCCCCCCC(=O)O[C@H]3[C@H](O)[C@@H](O)[C@H](O[C@@H]2[C@@H](O)[C@@H]1O)O[C@@H]3COC(C)=O (stereo partly specified)
IC50 [11]: 51.5 µg/mL (≈ 75.2 µM)
IC50 [33]: 30 µM
IC50 [34]: 5 µg/mL (≈ 7.3 µM)

CC(=O)OC[C@H]1O[C@H]2OC(C)/C=C/C/C=C/C/C=C\C/C=C/CCCCC(=O)O[C@H]3[C@H](O)[C@@H](O)[C@H](O[C@@H]2[C@@H](O)[C@@H]1O)O[C@@H]3COC(C)=O (stereo partly specified)
IC50 [35]: 40 µg/mL (≈ 58.6 µM)

COC(=O)CCCCCCC/C=C\CCCCCCC(C)O[C@@H]1O[C@H](COC(C)=O)[C@@H](O)[C@H](O)[C@H]1O[C@@H]1O[C@H](COC(C)=O)[C@@H](O)[C@H](O)[C@H]1O (stereo partly specified)
Activity [1]: 25.5%

CCCCOC(=O)CCCCCCC/C=C\CCCCCCC(C)O[C@@H]1O[C@H](COC(C)=O)[C@@H](O)[C@H](O)[C@H]1O[C@@H]1O[C@H](COC(C)=O)[C@@H](O)[C@H](O)[C@H]1O (stereo partly specified)
Activity [32]: 99%

COC(=O)CCCCCCC/C=C\CCCCCCC(C)O[C@@H]1O[C@H](CO)[C@@H](O)[C@H](O)[C@H]1O[C@@H]1O[C@H](CO)[C@@H](O)[C@H](O)[C@H]1O (stereo partly specified)
Activity [1]: 58.4%

CC(=O)OC[C@H]1O[C@H]2O[C@H]3[C@H](OC(C)CCCCCC/C=C\CCCCCCCC(=O)O[C@H]1[C@H](O)[C@H]2O)O[C@H](CO)[C@@H](O)[C@@H]3O (stereo partly specified)
Activity [36]: 52.06%
IC50 [33]: 15 µM
Activity [37]: 29.9%
Activity [38]: 41.24%

CCOC(=O)CCCCCCC/C=C\CCCCCCC(C)O[C@@H]1O[C@H](COC(C)=O)[C@@H](O)[C@H](O)[C@H]1O[C@@H]1O[C@H](COC(C)=O)[C@@H](O)[C@H](O)[C@H]1O (stereo partly specified)
Activity [32]: 90%

CC(=O)OC[C@H]1O[C@H]2OC(C)CCCCCCCCCCCCCCCC(=O)O[C@H]3[C@H](O)[C@@H](O)[C@H](O[C@@H]2[C@@H](O)[C@@H]1O)O[C@@H]3COC(C)=O (stereo partly specified)
IC50 [11]: 30.2 µg/mL (≈ 43.7 µM)
IC50 [33]: 15 µM

CCCCCCCCCCCCCCCCO[C@@H]1O[C@H](COC(C)=O)[C@@H](O)[C@H](O)[C@H]1O[C@@H]1O[C@H](CO)[C@@H](O)[C@H](O)[C@H]1O
IC50 [2]: 14.1 µg/mL (≈ 23.2 µM)
IC50 [3]: > 100 µg/mL
IC50 at 48 h [4]: > 320 µg/mL
IC50 [5]: 23.2 µg/mL (≈ 38.1 µM)
IC50 [6]: 15 µg/mL
IC50 [7]: 37.7 µg/mL (≈ 61.9 µM)
IC50 [8]: 116 µg/mL (≈ 191 µM)
IC50 [9]: 14.9 µg/mL (≈ 24.6 µM)
IC50 at 48 h [10]: > 320 µg/mL

From ChEMBL document CHEMBL5120863, “Sophorolipids: Anti-cancer activities and mechanisms” (Bioorg Med Chem, 2022)
